Test system: Mouse Experimental Autoimmune Encephalomyelitis (EAE) Model
Assay: Effect on a mouse experimental autoimmune encephalomyelitis (EAE) model
Type: in vivo
Conditions: MBP-immunized mice, oral, once a day from the 5th day to 41st day after the immunization

Compound: C[C@](N)(CO)CCCc1ccc(Sc2cccc(C(F)(F)F)c2)cc1Cl.Cl [compound 27, (R)-2-amino-5-[2-chloro-4-(3-trifluoromethylphenylthio)phenyl]-2-methylpentan-1-ol hydrochloride]
- administration dose showing maximum reaction (onset inhibition): 0.3 mg/kg
- onset of disease (clinical symptom score, total score) (0.01 to 0.3 mg/kg, FIG. 1 and FIG. 2): inhibited the onset of disease dose-dependently

Reference: patent US20100093745A1, “THERAPEUTIC AGENT OR PROPHYLACTIC AGENT FOR DEMYELINATING DISEASE COMPRISING AMINO ALCOHOL DERIVATIVE AS ACTIVE INGREDIENT” (priority 2007, published 2010)
